From patent US6043248A, “Alpha-substituted pyrimidine-thioalkyl and alkylether compounds as inhibitors of viral reverse transcriptase” (priority 1997, dated 2000)
Structures can show the parent of a compound that is named as a salt. Where two headings read alike, the source gives them in different places.

Assays:
[1] = biological target: T1, viral reverse transcriptase (Wild Type) (Human immunodeficiency virus type 1 group M subtype B, UniProt P04585); test: inhibition of viral reverse transcriptase (Wild Type), cell free assay; assay type: biochemical; conditions: for IC50: 30 minutes at 37° C.
T1 construct: Viral reverse transcriptase (Wild Type) is found in extracts from bacterial clones; made in house; host or cells: Escherichia coli
Excerpt: The utility of the pyrimidine-thioalkyl and alkylether anti-AIDS compounds of Formula IA of this invention can be determined by their ability to inhibit viral reverse transcriptase, an enzyme essential for human immunodeficiency virus replication. This enzyme has characteristics which differentiate it from other known cellular polymerases and it is a unique enzyme which is not found in uninfected cells. Viral reverse transcriptase (Wild Type) is found in extracts from bacterial clones prepared according to the procedure described in AIDS Virus Reverse Transcriptase defined by high level expression in Escherichia coli, EMBO J. 6:3133-3137 (1987). P236L viral reverse transcriptase is obtained by PNAS 90: 4713-4717 (1993). Inhibition of this enzyme is determined in a cell free assay which measures the level of radioactive precursors incorporated into DNA. Extracts prepared according to the procedure of Science, 1125-1129 (1981) are incubated in a mixture of inhibitor, 20 mM dithiothreitol, 60 mM sodium chloride, 0.05% NP-40, 10 mM magnesium chloride, 50 mM Tris pH 8.3, 10 μM [^35 S]-labeled deoxynuleoside-5'-triphosphate, 10 μg/ml RNA template (poly rC or poly rG) and 5 μg/ml DNA primer (oligo dG or oligo dT) for 30 minutes at 37° C. Incorporation of radio-labeled percursor is determined by spotting aliquots of the reaction mixture on DE81 paper, washing the papers to remove unincorporated percursor, drying and determining counts. The results (IC50 means the concentration, in μM of drug, required to inhibit the reverse transcriptase activity (P236L and Wild Type) to the extent of 50%) of various assay(s) are combined and reported as % inhibition and/or IC50 (calculated) in Table I (P236L) and Table II (Wild Type).

[2] = biological target: T2, P236L viral reverse transcriptase (Human immunodeficiency virus type 1 group M subtype B, UniProt P04585, P823L); test: inhibition of viral reverse transcriptase (P236L), cell free assay; assay type: biochemical; conditions: IC50 (Table I, P236L), 30 minutes at 37° C.
T2 construct: P236L viral reverse transcriptase is obtained by PNAS 90: 4713-4717 (1993); made in house
Procedure, shortened: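 E. coli-expressed wild-type or P236L RT extracts incubated with inhibitor 30 min at 37 °C in Tris pH 8.3 with MgCl₂, NaCl, DTT, NP-40, 10 μM [35S]-dNTP, poly rC/rG template and oligo dG/dT primer. Incorporated label counted on DE81 paper; reported as % inhibition and/or IC50.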

[3] = read-out: IC50 (Table II, Wild Type)

Structure (SMILES) | IC50 [1, 3] [nM] | IC50 [2] [nM] | IC50 ([1]; IC50 (Table II, Wild Type)) [nM] | inhibition at 50 µM [1] [%] | inhibition at 10 µM ([1]; @ 10 μM) [%]
CCc1ccnc([C@@H](C)Sc2nc(N)cc(Cl)n2)c1 [Example 291, R-(+)-4-Amino-6-chloro-2-(1-(4-ethyl-2-pyridyl)ethyl)thio-pyrimidine] | 187 | 80 | – | – | –
CCc1ccnc([C@H](C)Sc2nc(N)cc(Cl)n2)c1 [Example 292, (-)-4-Amino-6-chloro-2-(1-(4-ethyl-2-pyridyl)ethyl)thio-pyrimidine] | – | 17 | 7 | – | –
Clc1nc(SCc2ccc3ccccc3c2)nc2c1CCN2 [Example 281, 4-chloro-2-(naphthylmethyl)thio-5,6-dihydro-7H-pyrrolo[2,3-d]pyrimidine] | – | 1000 | – | 56 | –
CN1CCN(C(=O)/C=C/CSc2nc(N)cc(Cl)n2)CC1 [Example 195, (E)-4-methyl-1-[4-[(4-amino-6-chloro-2-pyrimidinyl)thio]-1-oxo-2-butenyl]piperazine] | – | 50000 | – | 40 | –
Nc1cc(Cl)nc(SC/C=C/C(=O)N2CCOCC2)n1 [Example 198, (E)-4-[4-[(4-amino-6-chloro-2-pyrimidinyl)thio]-1-oxo-2-butenyl]morpholine] | – | 10000 | – | 69 | –
Cc1coc2cnc([C@H](C)Sc3nc(N)cc(Cl)n3)cc12 [Example 290, (S)-(-)-4-Amino-6-chloro-2-(1-(3-methylfuro[2,3c]pyridine-5-yl)ethyl)thio-pyrimidine] | 25 | 14 | – | – | –
CCN(CC)C(=O)/C=C/CSc1nc(N)cc(Cl)n1 [Example 194, (E)-N,N-Diethyl-4-[(4-amino-6-chloro-2-pyrimidinyl)thio]-2-butenamide] | 49 | 34 | – | – | –
CC(C)c1ccnc(CSc2nc(N)cc(C(F)(F)F)n2)c1 [Example 271, 4-amino-6-trifluoromethyl-2-((4-(1-methylethyl)2-pyridyl)methyl)thio-pyrimidine] | 31 | 50 | – | – | –
CC(Sc1nc(N)cc(Cl)n1)c1cc2c(C(F)(F)F)coc2c(Cl)n1 (stereo not shown) [Example 293] | 345 | 190 | – | – | –
CC(C)c1ccnc(C(C)Sc2nc(N)c(Br)c(Cl)n2)c1 (stereo not shown) [Example 225] | 101 | 67 | – | – | –
Cc1coc2c(Cl)nc(C(C)Sc3nc(N)cc(C(F)(F)F)n3)cc12 (stereo not shown) [Example 295, 4-Amino-2-(1-(7-chloro-3-methyl-furo[2,3c]pyridin-5-yl)ethylthio)-6-trifluoromethyl-pyrimidine] | 212 | 249 | – | – | –
CC(Sc1nc(N)cc(C(F)(F)F)n1)c1cc(C(C)(C)C)ccn1 (stereo not shown) [Example 269, 4-amino-6-trifluoromethyl-2-(1-(4-(1-dimethylethyl)-2-pyridyl)-ethyl)thio-pyrimidine] | 441 | 200 | – | – | –
N#Cc1cc(N)nc(SCc2ccc3ccccc3c2)n1 [Example 277, 6-amino-2-(2-naphthylmethyl)thio-4-pyrimidine carbonitrile] | – | 500 | – | – | 84
CCC(C)c1ccnc(C(C)Sc2nc(N)cc(Cl)n2)c1 (stereo not shown) [Example 256, 4-amino-6-chloro-2-(1-(4-(1-methylpropyl)-2-pyridyl)-ethyl)thio-pyrimidine] | 93 | 100 | – | – | –
Cc1ccnc(C(C)Sc2nc(N)cc(Cl)n2)c1 (stereo not shown) [Example 215, 4-Amino-6-chloro-2-(1-(4-methyl-2-pyridyl)ethyl)thio-pyrimidine hydrochloride] | 17 | 33 | – | – | –
CC(C)c1ccnc(C(C)Sc2nc(N)cc(Cl)n2)c1 (stereo not shown) [Example 223, 4-Amino-6-chloro-2-(1-(4-(1-methylethyl)-2-pyridyl)ethyl)thio-pyrimidine] | 60 | 68 | – | – | –
Cc1coc2cnc([C@H](C)Sc3nc(N)cc(C(F)(F)F)n3)cc12 [Example 297, (S)-(-)-4-Amino-6-trifluoromethyl-2-(l1-(3-methylfuro[2,3c]pyridin-5-yl)ethylthio)-pyrimidine] | 78 | 64 | – | – | –
CC(Sc1nc(N)cc(Cl)n1)c1cc2ccoc2c(Cl)n1 (stereo not shown) [Example 237, 4-Amino-6-chloro-2-(1-(7-chlorofuro[2,3c]pyridine-5-yl)ethyl)thio-pyrimidine] | 15 | 26 | – | – | –
CC(C)c1ccnc(C(C)Sc2nc(N)cc(C(F)(F)F)n2)c1 (stereo not shown) [Example 272, 4-amino-6-trifluoromethyl-2-(1-(4-(1-methylethyl)2-pyridyl)ethyl)thio-pyrimidine] | 112 | 160 | – | – | –
CC(Sc1nc(N)cc(C(F)(F)F)n1)c1cc2ccoc2cn1 (stereo not shown) [Example 239, 4-Amino-6-trifluoromethyl-2-(1-(furo[2,3-c]pyridin-5-yl)ethyl)thio-pyrimidine] | 50 | 88 | – | – | –
Cc1cc2cc(C(C)Sc3nc(N)cc(C(F)(F)F)n3)nc(Cl)c2o1 (stereo not shown) [Example 241, 4-Amino-6-trifluoromethyl-2-(1-(7-chloro-2-methylfuro[2,3c]pyridine-5-yl)ethyl)thio-pyrimidine] | 82 | 334 | – | – | –
Cc1cc2cc(C(C)Sc3nc(N)cc(C(F)(F)F)n3)ncc2o1 (stereo not shown) [Example 243, 4-Amino-6-trifluoromethyl-2-(1-(2-methylfuro[2,3c]pyridine-5-yl)ethyl)thio-pyrimidine] | 495 | 188 | – | – | –
CCc1ccnc(C(C)Sc2nc(N)cc(Cl)n2)c1 (stereo not shown) [Example 216, 4-Amino-6-chloro-2-(1-(4-ethyl-2-pyridyl)ethyl)thio-pyrimidine] | 27 | 30 | – | – | –
